From patent US20110065734A1, “NOVEL BIFUNCTIONAL COMPOUNDS WHICH INHIBIT PROTEIN KINASES AND HISTONE DEACETYLASES” (4SC AG, priority 2007, published 2011)
Structures can show the parent of a compound that is named as a salt. Where two headings read alike, the source gives them in different places. Values belong to the molecule of their own block, whether it stands above or below them.

Assays:
[1] = test system: histone H3 hyperacetylation in HeLa cervical carcinoma cells; test: Cellular histone H3 hyperacetylation assay; type: cell-based; conditions: Homo sapiens, 24 h, only a range over the listed compounds is given, read-out: Induction of histone H3 hyperacetylation in HeLa cervical carcinoma cells EC50
Excerpt: To assess the cellular efficacy of a histone deacetylase inhibitor in vitro, an assay was set up in black clear-bottom 96-well plates and optimized for use on the Cellomics “ArrayScan II” platform for a quantitative calculation of histone acetylation. The protocol uses a polyclonal rabbit antibody, specifically binding to acetylated lysine 1-20 of human histone H3 on fixed cells with an Alexa Fluor 488 labeled goat anti rabbit-IgG used for counterstaining (Beckers et al. Int J. Cancer 121, 1138, 2007).
5×10^3 HeLa cervical carcinoma cells/well (ATCC. CCL-2) in 200 μl Dulbecco rs modified Eagle's medium (DMEM) containing 10% fetal calf serum are seeded at day 1 in Packard view plates and incubated for 24 h under standard cell culture conditions. On day 2, 1 μl test compound (200× final concentration) is added and incubation continued for further 24 h. On day 3, the culture medium is discarded and attached cells fixed for 15 min at room temperature by addition of 100 μl fixation buffer (3.7% v:v formaldehyde in phosphate buffered saline/PBS). After discarding the fixation buffer and one wash with blocking solution (1% BSA, 0.3% Tween 20 in PBS), cells are permeabilized at room temperature by addition of 100 μl/well permeabilization buffer (30.8 mM NaCl, 0.54 mM Na2HPO4, 0.31 mM KH2PO4, 0.1% v:v Triton X-100) for 15 min at room temperature. After discarding the permeabilization buffer and washing twice with 100 μl/well blocking solution at room temperature, the 1st antibody (anti-K^1-20 histone H3 antibody, Calbiochem No. 382158) in blocking solution (50 μl/well) is added. After incubation for 1 h at room temperature, the wells are washed twice at room temperature with 100 μl/well blocking solution before addition of the 2nd antibody (goat-anti-rabbit Alexa Fluor 488; MoBiTec No. A-11008) in blocking solution (50 μl/well). After further incubation for 1 h at room temperature, wells are washed twice with 100 μl/well blocking solution at room temperature. Finally, 100 μl/well PBS are added and image analysis performed on the Cellomics “ArrayScan II” platform. For EC50 determination, the percentage of positive cells showing nuclear fluorescence is determined and EC50 calculation done from concentration-effect curves by means of non-linear regression. For calibration, a positive (reference HDAC inhibitors like SAHA or NVP LBH-589) and a negative control were included.

A549 NSCLC cell line = test: Cellular cytotoxicity assay (Alamar Blue), A549; type: cell-based; conditions: Homo sapiens
Procedure: (§1) The anti-proliferative activity of the chimeric HDAC and protein kinase inhibitory chimeric compounds of the present invention was evaluated using HeLa cervical carcinoma, A549 NSCLC, SKOV3 ovarian carcinoma, Cal27 head and neck cancer, K562 chronic myeloid leukemia (CML) and EOL1 acute hypereosinophilic myeloid leukemia, cell lines. For quantification of cellular proliferation/living cells the Alamar Blue (Resazurin) cell viability assay was applied (O'Brien et al. Eur Biochem. 267, 5421-5426, 2000). In this assay Resazurin is reduced to the fluorescent resorufin by cellular dehydrogenase activity, correlating with viable, proliferating cells. The examples were dissolved as 20 mM solutions in dimethylsulfoxide (DMSO) and subsequently diluted in semi-logarithmic steps. Cell lines were seeded at respective density into 96 well flat bottom plates in a volume of 200 μl per well. 24 h after seeding 1 μl each of the compound dilutions were added into each well of the 96 well plate. Each compound dilution was tested as quadruplicates. Wells containing untreated control cells were filled with […] DMEM medium containing 0.5% v:v DMSO. The cells were then incubated with the substances for 72 h at 37° C. in a humidified atmosphere containing 5% carbon dioxide. To determine the viability of the cells, 20 μl of an Resazurin solution (Sigma; 90 mg/l) were added. After 4 h incubation at 37° C. the fluorescence was measured at an extinction of 544 nm and an emission of 590 nm. For the calculation of the cell viability the emission value from untreated cells was set as 100% viability and the emission rates of treated cells were set in relation to the values of untreated cells. Viabilities were expressed as % values. The corresponding IC50 values of the compounds for cytotoxic activity are determined from the concentration-effect curves by means of non-linear regression.

[2] = test system: SKOV3 ovarian carcinoma cell line; test: Cellular cytotoxicity assay (Alamar Blue), SKOV3; type: cell-based; conditions: Homo sapiens
Procedure: as §1

[3] = test system: Cal27 head and neck cancer cell line; test: Cellular cytotoxicity assay (Alamar Blue), Cal27; type: cell-based; conditions: Homo sapiens
Procedure: as §1

[4] = test system: HeLa cervical carcinoma cell line; test: Cellular cytotoxicity assay (Alamar Blue), HeLa; type: cell-based; conditions: Homo sapiens, 72 h
Procedure: as §1

[5] = target: T1, recombinant HDAC1 isolated from HEK293 cells with heterologous HDAC1 expression (Homo sapiens, UniProt Q13547); test: Fluorimetric rHDAC1 activity assay; type: biochemical; conditions: only a range of IC50 over the compounds given; read-out: rHDAC1 inhibitory activity IC50
T1 construct: made in house

[6] = test system: EOL1 acute hypereosinophilic myeloid leukemia cell line; test: Cellular cytotoxicity assay (Alamar Blue), EOL1; type: cell-based; conditions: Homo sapiens, 72 h, only a range over the listed compounds is given, read-out: Cytotoxicity towards EOL1 cell line IC50
Procedure: as §1

PDGFRβ = target: T2, PDGFRβ (Homo sapiens, UniProt P09619); test: Biochemical flash-plate based kinase assay, PDGFRβ; conditions: only a range over the listed compounds is given; read-out: PDGFRβ inhibition IC50
T2 construct: purchased ProQinase, Freiburg/Germany
Excerpt: Active kinase proteins were either obtained from commercial suppliers (Abl, PDGF-Rβ ProQinase, Freiburg/Germany; AblT^315I: Millipore/Upstate, Billerica/USA; PKA: InvitroGen/Panvera, Carlsbad/USA) or prepared in-house (KDR, c-terminal kinase domain AA790-1356, HER2 c-terminal kinase domain, EGFR/HER1 C-terminal kinase domain). As substrates, poly-AGKY for Abl, AblT^315I and PDGF-Rβ (#P-1152 Sigma, Munich/Germany), poly-GluTyr for KDR, HER2 and EGFR/HER1 (#P-0275, Sigma, Munich/Germany) or a PKA substrate peptide for PKA (#12-394, Millipore/Upstate, Billerica/USA) were used. Into each well of a 96-well flashplate (#SMP-200 in the case of Abl, Abl T^315I, PDGF-Rβ, EGFR, HER2 and KDR, #SMP-103 in the case of PKA; Perkin Elmer, Waltham/USA) kinase protein was diluted into kinase assay buffer (50 mM HEPES pH 7.5, 3 mM MgCl2, 3 mM MnCl2, 1 mM DTT, 3 μM sodium orthovanadate, 5 μg/ml PEG 8000) containing the appropriate substrate (final volume 89 μl). DMSO vehicle or compounds are added as 1 μl/well prior to the initiation of the kinase reaction by 10 μl 1 mM [^33P]-γATP (4×10^5 cpm). Reactions were allowed to proceed for a time predetermined to be linear on a time versus phosphorylation plot (30 min for PKA, otherwise 80 min) and terminated with the addition of an equal volume of phosphoric acid (2% H3PO4 for 5 minutes). Plates were washed three times with 0.9% w/v NaCl and quantitated by liquid scintillation counting.

[7] = test system: K562 chronic myeloid leukemia (CML) cell line; test: Cellular cytotoxicity assay (Alamar Blue), K562; type: cell-based; conditions: Homo sapiens, 72 h, only a range over the listed compounds is given, read-out: Cytotoxicity towards K562 CML cell line IC50
Procedure: as §1

[8] = A549, 72 h, only a range over the listed compounds is given, read-out: Cytotoxicity towards A549 NSCLC cell line IC50
[9] = SK-OV-3, 72 h, only a range over the listed compounds is given, read-out: Cytotoxicity towards SKOV3 cell line IC50
[10] = CAL-27, 72 h, only a range over the listed compounds is given, read-out: Cytotoxicity towards Cal27 cell line IC50
[11] = only a range over the listed compounds is given, read-out: Cytotoxicity towards HeLa cervical cell line IC50

T1 sequence (Q13547 whole entry): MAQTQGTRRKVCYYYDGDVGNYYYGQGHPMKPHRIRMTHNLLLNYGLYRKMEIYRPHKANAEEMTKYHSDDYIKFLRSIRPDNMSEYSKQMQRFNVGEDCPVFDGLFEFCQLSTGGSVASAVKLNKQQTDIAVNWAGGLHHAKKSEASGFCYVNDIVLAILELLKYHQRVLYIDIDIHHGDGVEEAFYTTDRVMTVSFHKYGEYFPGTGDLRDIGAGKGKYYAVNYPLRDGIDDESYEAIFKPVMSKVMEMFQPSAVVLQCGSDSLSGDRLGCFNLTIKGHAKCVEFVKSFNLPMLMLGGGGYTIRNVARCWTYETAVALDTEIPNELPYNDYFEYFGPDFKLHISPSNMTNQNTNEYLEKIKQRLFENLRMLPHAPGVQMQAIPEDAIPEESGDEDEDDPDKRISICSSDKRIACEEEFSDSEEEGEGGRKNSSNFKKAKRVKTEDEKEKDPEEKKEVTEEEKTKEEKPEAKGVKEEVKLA
T2 sequence (P09619 33-1106): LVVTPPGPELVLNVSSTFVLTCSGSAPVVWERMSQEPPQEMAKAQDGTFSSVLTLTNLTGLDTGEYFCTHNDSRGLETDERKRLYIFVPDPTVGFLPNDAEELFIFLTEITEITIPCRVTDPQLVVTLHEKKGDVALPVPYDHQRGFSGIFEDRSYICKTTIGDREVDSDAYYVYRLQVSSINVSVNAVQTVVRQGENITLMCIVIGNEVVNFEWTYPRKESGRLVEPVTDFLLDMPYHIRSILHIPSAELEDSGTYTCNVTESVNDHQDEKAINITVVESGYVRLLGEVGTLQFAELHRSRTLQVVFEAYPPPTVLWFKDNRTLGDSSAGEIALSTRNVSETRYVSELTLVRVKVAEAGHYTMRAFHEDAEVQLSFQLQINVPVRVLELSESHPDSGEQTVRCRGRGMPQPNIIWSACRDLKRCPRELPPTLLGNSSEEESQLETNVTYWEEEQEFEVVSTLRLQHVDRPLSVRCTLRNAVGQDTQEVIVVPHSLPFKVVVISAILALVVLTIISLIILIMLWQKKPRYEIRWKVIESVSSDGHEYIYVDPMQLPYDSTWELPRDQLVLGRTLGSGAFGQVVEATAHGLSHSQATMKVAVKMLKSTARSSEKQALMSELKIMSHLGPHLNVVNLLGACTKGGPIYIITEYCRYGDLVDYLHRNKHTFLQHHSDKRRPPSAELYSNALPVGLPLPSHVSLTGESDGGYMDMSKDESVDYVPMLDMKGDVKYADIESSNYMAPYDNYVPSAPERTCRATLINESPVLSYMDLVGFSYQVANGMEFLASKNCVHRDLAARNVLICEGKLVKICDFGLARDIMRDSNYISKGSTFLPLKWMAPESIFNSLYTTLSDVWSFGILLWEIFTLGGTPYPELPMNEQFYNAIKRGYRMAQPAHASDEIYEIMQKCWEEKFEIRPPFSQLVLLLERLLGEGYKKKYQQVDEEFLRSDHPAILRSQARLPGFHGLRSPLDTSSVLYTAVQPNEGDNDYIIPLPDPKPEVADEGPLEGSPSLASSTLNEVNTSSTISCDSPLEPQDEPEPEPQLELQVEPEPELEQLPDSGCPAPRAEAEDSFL

SMILES: Nc1ccccc1NC(=O)c1ccc(-c2ccc3ncnc(Nc4ccc(OCc5cccc(F)c5)c(Cl)c4)c3c2)o1 [[5], 5-{4-[3-Chloro-4-(3-fluorobenzyloxy)phenylamino]-quinazolin-6-yl}furan-2-carboxylic acid (2-amino-phenyl)amide]
EC50 [1]: ≥ 3.65 µM
melting point: 250 °C (dec.)
IC50 (A549 NSCLC cell line; [8]): ≥ 1.1e-06 M
IC50 [2, 9]: ≥ 1e-06 M

SMILES: O=C(/C=C/c1ccc(-c2ccc3ncnc(Nc4ccc(OCc5cccc(F)c5)c(Cl)c4)c3c2)cc1)NO [[8], (E)-3-(4-(4-(3-chloro-4-(3-fluorobenzyl-oxy)phenylamino)quinazolin-6-yl)phen-yl)-N-hydroxyacrylamide hydrochloride monohydrate]
IC50 ([3]; CAL-27, 72 h, read-out: Cytotoxicity towards Cal27 cell line IC50 (M)): ≥ 2.8e-07 M
IC50 ([4]; read-out: Cytotoxicity towards HeLa cervical cell line IC50 (M)): 9.1e-07 to 9.4e-06 M
IC50 (A549 NSCLC cell line; A549, 72 h, read-out: Cytotoxicity towards A549 NSCLC cell line IC50 (M)): ≥ 1.1e-06 M
IC50 [5]: ≥ 0.0353 µM
IC50 ([2]; SK-OV-3, 72 h, read-out: Cytotoxicity towards SKOV3 cell line IC50 (M)): ≥ 1e-06 M

SMILES: Nc1ccccc1NC(=O)/C=C/c1cccc(-c2ccc3ncnc(Nc4ccc(OCc5cccc(F)c5)c(Cl)c4)c3c2)c1 [[11], (E)-N-(2-aminophenyl)-3-(3-(4-(3-chloro-4-(3-fluorobenzyloxy)phenylamino)-quinazolin-6-yl)phenyl)acrylamide]
IC50 [3, 10]: ≥ 2.8e-07 M
IC50 (A549 NSCLC cell line; [8]): ≥ 1.1e-06 M
IC50 [5]: ≥ 0.0353 µM

SMILES: Cc1ccc(NC(=O)c2ccc(C(=O)Nc3ccccc3N)cc2)cc1Nc1nccc(-c2cccnc2)n1 [[14], N-(2-Amino-phenyl)-N′-[4-methyl-3-(4-pyridin-3-yl-pyrimidin-2-ylamino)-phenyl]-terephthalamide compound with trifluoroacetic acid]
IC50 [6]: 0.003 to 0.78 µM
IC50 [4, 11]: ≥ 1.15e-06 M
IC50 (PDGFRβ): 2.1 to 71 µM

SMILES: Cc1ccc(NCc2ccc(/C=C/C(=O)NO)cc2)cc1Nc1nccc(-c2cccnc2)n1 [[16], (E)-N-Hydroxy-3-(4-{[4-methyl-3-(4-pyridin-3-yl-pyrimidin-2-ylamino)-phenylamino]methyl}-phenyl)-acrylamide]
EC50 [1]: 1.7 to 10 µM
melting point: 201 to 205 °C
IC50 [4, 11]: ≥ 1.15e-06 M
IC50 (A549 NSCLC cell line; [8]): ≥ 2.95e-06 M
IC50 [5]: 0.077 to 1.4 µM

SMILES: Nc1ccccc1NC(=O)c1ccc(C(=O)Nc2cccc(Nc3nc(-c4cccnc4)cs3)c2)cc1 [[18], N^1-(2-aminophenyl)-N^4-(3-(4-(pyridin-3-yl)thiazol-2-ylamino)phenyl)terephthalamide hydrate]
IC50 (PDGFRβ): 2.1 to 71 µM

SMILES: C#Cc1cccc(Nc2ncnc3ccc(S(=O)(=O)n4ccc(/C=C/C(=O)NO)c4)cc23)c1 [[45], 3-{1-[4-(3-Ethynylphenylamino)quinazoline-6-sulfonyl]-1H-pyrrol-3-yl}-N-hydroxy-acrylamide]
IC50 [3, 10]: 1.6e-07 to 8e-06 M
IC50 [4, 11]: ≥ 5e-07 M
IC50 (A549 NSCLC cell line; [8]): ≥ 2.4e-07 M
IC50 [2, 9]: ≥ 5.6e-07 M

Continued, in another order:

EC50 [1]: 1.7 to 10 µM
melting point: 261 °C
IC50 (PDGFRβ): 2.1 to 71 µM
SMILES: Cc1ccc(NC(=O)c2ccc(C(=O)NO)cc2)cc1Nc1nc(-c2cccnc2)cs1 [[20], N^1-hydroxy-N^4-(4-methyl-3-(4-(pyridin-3-yl)thiazol-2-ylamino)phenyl)terephthalamide]
IC50 [4, 11]: ≥ 1.15e-06 M
IC50 (A549 NSCLC cell line; [8]): ≥ 2.95e-06 M

melting point: 148 to 150 °C
SMILES: Nc1ccccc1NC(=O)c1ccc(C(=O)Nc2cccc(Nc3nc(-c4cccnc4)cs3)c2)cn1 [[24], N^2-(2-aminophenyl)-N^5-(3-(4-(pyridin-3-yl)thiazol-2-ylamino)phenyl)pyridine-2,5-dicarboxamide]
IC50 [7]: 0.49 to 4.07 µM

melting point: 280.5 °C
SMILES: Cc1ccc(NC(=O)c2ccc(C(=O)Nc3ccccc3N)s2)cc1Nc1nccc(-c2cccnc2)n1 [[26], N^2-(2-aminophenyl)-N^5-(4-methyl-3-(4-(pyridin-3-yl)pyrimidin-2-ylamino)phenyl)thiophene-2,5-dicarboxamide]
IC50 [6]: 0.003 to 0.78 µM
IC50 [7]: 0.49 to 4.07 µM
IC50 (A549 NSCLC cell line; [8]): ≥ 2.95e-06 M

IC50 [5]: 0.077 to 1.4 µM
SMILES: CN(C(=O)c1ccc(C(=O)Nc2ccccc2N)cc1)c1ccc(Cl)c(Nc2nccc(-c3cccnc3)n2)c1 [[35], N-(2-Amino-phenyl)-N′-[4-chloro-3-(4-pyridin-3-yl-pyrimidin-2-ylamino)-phenyl]-N′-methyl-terephthalamide]
IC50 [6]: 0.003 to 0.78 µM
IC50 [7]: 0.49 to 4.07 µM
